Values of other authors as cited in patent US20040039036A1, “Water-soluble liquid internal medicine” (priority 2000, published 2004).

Conditions: JP-A-11-193233 injectable solution, famotidine 1 mg/mL; after preservation at 40° C. for 2 months

residual rate: 96.6%
SMILES: NC(N)=Nc1nc(CSCCC(N)=NS(N)(=O)=O)cs1 [famotidine]
